Series [1] has as its system homozygous bw^D/bw^D flies. Put plainly: P31 fed to developing homozygous brown-dominant flies. It is filed as in vivo. The protocol: These experiments established a remarkable molecular interplay between the GAGAA insert of the bw^D allele and its target-compound P31.
Drug treatments of the bw^D flies were performed as for w^m4 flies except that 30 parental females were allowed to lay eggs. To obtain the heterozygous bw^D/+; st/st progeny, 30 virgin bw^D/bw^D; st/st homozygous females were mated with scarlet homozygous males for about 5 days before transferring them to experimental vials for egg laying.
(§1) The lethality of the progenies was calculated by counting the dead bodies and the total empty pupal shells. The A6 to A5 transformation was detected by bristles that form on abdominal segment A6 on males. All male adult flies obtained (˜50) were scored. Sex combs and halteres were individually inspected and photographed under the microscope (Axiophot, Zeiss) after dissecting at least 30 individuals and incubating them into 30 μl of 0.6 g/ml gum arabic; 4 g/ml chlorohydrate; 35% glycerol under a 24×24 mm coverslip as described (Ashburner, 1989). Since raising double heterozygous flies (Ubx^1/+; bw^D/+) led to lethality, we morphologically dissected eight late stage pupae after carefully removing the pupal envelope.

The subject of series [2] is Ubx^1/+ flies. Nature of the series: P31 fed to developing Ubx^1/+ flies. The format is in vivo, Drosophila melanogaster.
Excerpt: P31 enhances haltere-to-wing transformation in heterozygous bw^D/bw; Ubx^1/+ flies: The GAGA factor is know to bind to the promoter of Ubx and to stimulate its transcription in vitro (Biggin and Tjian, 1988) The Trl locus also genetically interacts with Ubx, since Trl^13C dominantly enhances the segmental transformation observed in Ubx heterozygotes. […] We asked, does P31 also chemically mimic the genetic interaction of Ubx and Trl^13C? To address this issue, we fed P31 to two genotypes, +/+; Ubx/+ and bw^D/bw^D; Ubx^1/+. The latter genotype was obtained by crossing bw^D/bw^D; st/st females and bw^D/bw^D Ubx^1/Tm3, sb males.
as §1

In series [3] the test system is CACAA repeats. Nature of the series: DNase I footprinting on CACAA repeats (Brown I probe). The format is binding. The source says:
A drawback of this binding model, as opposed to conventional 2:1 drug to DNA complexes, is that P31 is expected to bind degenerate GC and CG base pairs, albeit with different affinity. The consensus sequence can thus be defined as SWSWWSWSWW, where S stands for a G or C and W for A or T. To evaluate binding of P31 to CACAA repeats, we used a second probe that contains two of these repeats as well as five tandem GAGAA repeats. […] Again, it is observed than this molecule binds as a 1:1 drug to DNA complex in an orientation as indicated by arrowheads (FIG. 3A). We propose that special structural features of AT-tracts and GAGAA repeats might favor 1:1 DNA to drug complexes.
(§2) Synthetic oligonucleotides […] and […] were hybridized to obtain the W9 probe, oligomerized by ligation and digested with BamHI and BglII to obtain different tandem repeats. The following oligonucleotides were prepared identically: GAF31 is composed of the oligonucleotides […] and […] and, BrownI of oligonucleotides […] and […]. Fragments were purified on low-melt agarose gels and then cloned into a modified pSP64 vector, cut by BamHI and BglII. End-labeling was carried out following digestion with HindIII and a fill-in reaction with Klenow DNA polymerase. The labeled plasmid was cut with PvuII and the target fragments purified from low-melting agarose gels. […]

The subject of series [4] is GAF binding site from the Ubx promoter. Nature of the series: DNase I footprinting on Ubx GAF binding site (GAF31 probe). The settings on record: same probe as bw^D repeats. Details: species or system Drosophila melanogaster.
Excerpt: A footprint experiment was therefore carried out with this protein. The DNA probe (GAF31) used for this purpose contains besides the (AAGAG)2 motif (the target of P31) a typical promoter proximal GAF binding site derived from the Ubx gene (Biggin et al., 1988). This Ubx site contains the pentameric consensus sequence GAGAG of GAF (Omichinski et al., 1997). […] Selective Staining of GAGAA Satellite V in Nuclei and Polytene Chromosomes:
as §2, with “gels. The 657 bp EcoR1/Hinf1 fragment of the Drosophila histone SAR was cloned into the SmaI site of the modified pSP64 plasmid. This SAR probe was end-labeled following-digestion with EcoR1, then cut with ClaI and the resulting 347 bp fragment purified from low-melting agarose gels.” for “gels.”

The subject of series [5] is Drosophila histone SAR. Put plainly: DNase I footprinting on SAR probe. It is filed as binding. The protocol: (§3) Synthetic oligonucleotides […] and […] were hybridized to obtain the W9 probe, oligomerized by ligation and digested with BamHI and BglII to obtain different tandem repeats. The following oligonucleotides were prepared identically: GAF31 is composed of the oligonucleotides […] and […] and, BrownI of oligonucleotides […] and […]. Fragments were purified on low-melt agarose gels and then cloned into a modified pSP64 vector, cut by BamHI and BglII. End-labeling was carried out following digestion with HindIII and a fill-in reaction with Klenow DNA polymerase. The labeled plasmid was cut with PvuII and the target fragments purified from low-melting agarose gels. The 657 bp EcoR1/Hinf1 fragment of the Drosophila histone SAR was cloned into the SmaI site of the modified pSP64 plasmid. This SAR probe was end-labeled following-digestion with EcoR1, then cut with ClaI and the resulting 347 bp fragment purified from low-melting agarose gels.
(§4) All reactions were performed in a total volume of 40 μl. A polyamide stock solution or buffer (for reference lanes) was added to an assay buffer containing 20 kcpm radiolabeled DNA, affording final concentrations of 10 mM Tris-HCl (pH 7.4), 10 mM KCl, 10 MM MgCl, 5 mM CaCl2, 0.5 mM EDTA, 0.5 mM EGTA, 1 mM DTT and 0.1% digitonine. The solutions were allowed to equilibrate for at least 2 h at room temperature. Footprinting reactions were initiated by the addition of 2 μl of a DNase stock solution (containing −100 μg DNase I in buffer) and allowed to proceed for 2 min at room temperature. The reactions were stopped by addition of 10 μl of a solution containing 1.25 M NaCl, 100 mM EDTA. Next, 5 μl of a 1% SDS solution was added, followed by 2 μl of a solution containing 1 μg poly(dA-dT), 1 μg salmon sperm DNA and 10 μg glycogen and the DNA was ethanol precipitated (20 min at −20 C.). The reactions were resuspended in 4 μl of 80% formamide loading buffer, denatured 10 min at 85 C., cooled on ice and electrophoresed on 8% polyacrylamide denaturing gels (5% cross-link, 8 M urea) at 30 W for 1 h. The gels were dried and exposed o/n at −70 C.

In series [6] the target is W9 probe (tandem repeats of an oligonucleotide with a 9 bp AT-tract). Nature of the series: DNase I footprinting on probe W9. It is filed as binding.
Excerpt: DNase I cleavage pattern in the presence of P9 and P7. Ligand concentrations are indicated at the top of each lane. The position of each of the AT-tracts is indicated by square brackets. […] This probe is composed of head-to-tail tandem repeats of an oligonucleotide with a 9 bp AT-tract.
as §3, §4

Setting [7] is: fly stock of r12, bw^D/bw^+, homozygous per text.

Experimental findings from patent publication US20030157715A1, “Modulation of chromosome function by chromatin remodeling agents” (priority 2000, published 2003) are described below.

Values joined by “and” are separate entries in the source; they are usually repeats but may differ in a detail not shown here. Equal values may be shown once.

With `CN(C)CCCNC(=O)CCNC(=O)c1nc(NC(=O)CCNC(=O)c2nc(NC(=O)CCNC(=O)c3cc(NC(=O)c4nc(NC(=O)CCNC(=O)c5nccn5C)cn4C)cn3C)cn2C)cn1C` [Compound P31, Im-β-Im-Py-β-Im-β-Im-β-Dp], in series [1] (setting [7]), the “A6 to A5” value turned out to be 100%; the Lethality was 66%; the “Sex comb, range of teeth” value was 6-9. The “Sex comb (mean)” value in series [1] (fly stock of r12, bw^D/bw^+, text: homozygous) was determined as 7.2. The “A6 to A5, number of bristles on A6” value in series [1] (fly stock of r12, bw^D/bw^+, text: homozygous bw^D males) is listed as 3-10. Moreover, the “sex comb teeth, number mostly found” value in series [1] (homozygous bw^D) is on record as 6. Moreover, the “progeny that died at the pupal stage” value in series [1] (homozygous bw^D flies) is listed as “about two thirds”. Moreover, in series [1] (in vivo), the “Pupae delay (hrs)” value was at least 65 hrs-∞ and the delay of hatching is 65 to 75 h. In series [2] (fly stock Ubx^1/+), the “A6 to A5” value came to 0%; the Lethality worked out at 10%; the “Sex comb (mean)” value is 10.3; the “Sex comb, range of teeth” value was 8-12. Besides, the “alteration of phenotype (in words)” value in series [2] (progeny of Ubx^1/+ flies) was “no altered phenotype”. Also, in series [3], the “affinity for CACAA repeats relative to GAGAA repeats” value is “approximately five fold lower affinity”. The “ligand concentration up to which no binding is noted at the Ubx GAF site” value in series [4] is listed as above 25 nM.

Consider `CN(C)CCCNC(=O)CCNC(=O)c1cc(NC(=O)c2cc(NC(=O)c3cc(NC(=O)CCNC(=O)c4cc(NC(=O)c5cc(NC(=O)c6cccn6C)cn5C)cn4C)cn3C)cn2C)cn1C` [Compound P9, PyPyPy-β-PyPyPy-β-Dp], for which, in series [5] (Kdapp W9 / Kdapp SAR (SAR specificity factor)), the Ratio worked out at 1.4. The Kd in series [5] (apparent binding affinity, DNase I footprinting, SAR probe, read-out: Kdapp SAR) is 0.55 nM; in series [6] (apparent binding affinity, DNase I footprinting, probe W9, read-out: Kdapp W9) it was ~0.75 nM and 0.75 nM. Moreover, in series [6], the “affinity for AT-tracts of 9 Ws (in words)” value is on record as “subnanomolar affinity”. The “better affinity for W9 than P7” value in series [6] (P9 versus P7, footprints on W9) is 100 fold.
